Test results from the supplement of paper PMC11451515.

Test system: P12-Ichikawa
Test: cell viability relative to DMSO control; higher = less cytotoxic
Conditions: 48 h
How it was run: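 Library compounds in DMSO were pin-dosed in an 11-point threefold series (47 μM to 0.79 nM) onto leukemia cells in 1536-well plates (5 μl). Plates held 500 cells/well of NOMO1 or SEM or 1000 cells/well of P12-Ichikawa, each adapted for at least four passages in each medium. Luminescence was read with CellTiter-Glo One after 48 h at 37°C. Viability means the per-plate percentage relative to DMSO wells, using cell-free wells as background.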

[1] = RPMI 5 mM glucose + 10% FBS, 0.000781 µM
[2] = RPMI 5 mM glucose + 10% FBS, 0.00234 µM
[3] = RPMI 5 mM glucose + 10% FBS, 0.00702 µM
[4] = RPMI 5 mM glucose + 10% FBS, 0.0211 µM
[5] = RPMI 5 mM glucose + 10% FBS, 0.0632 µM
[6] = RPMI 5 mM glucose + 10% FBS, 0.19 µM
[7] = RPMI 5 mM glucose + 10% FBS, 0.569 µM
[8] = RPMI 5 mM glucose + 10% FBS, 1.71 µM
[9] = RPMI 5 mM glucose + 10% FBS, 5.12 µM
[10] = RPMI 5 mM glucose + 10% FBS, 15.4 µM
[11] = RPMI 5 mM glucose + 10% FBS, 46.1 µM
[12] = RPMI 5 mM glucose + 10% dialyzed FBS, 0.000781 µM
[13] = RPMI 5 mM glucose + 10% dialyzed FBS, 0.00234 µM
[14] = RPMI 5 mM glucose + 10% dialyzed FBS, 0.00702 µM
[15] = RPMI 5 mM glucose + 10% dialyzed FBS, 0.0211 µM
[16] = RPMI 5 mM glucose + 10% dialyzed FBS, 0.0632 µM
[17] = RPMI 5 mM glucose + 10% dialyzed FBS, 0.19 µM
[18] = RPMI 5 mM glucose + 10% dialyzed FBS, 0.569 µM
[19] = RPMI 5 mM glucose + 10% dialyzed FBS, 1.71 µM
[20] = RPMI 5 mM glucose + 10% dialyzed FBS, 5.12 µM
[21] = RPMI 5 mM glucose + 10% dialyzed FBS, 15.4 µM
[22] = RPMI 5 mM glucose + 10% dialyzed FBS, 46.1 µM
[23] = HPLM + 10% dialyzed FBS, 0.000781 µM
[24] = HPLM + 10% dialyzed FBS, 0.00234 µM
[25] = HPLM + 10% dialyzed FBS, 0.00702 µM
[26] = HPLM + 10% dialyzed FBS, 0.0211 µM
[27] = HPLM + 10% dialyzed FBS, 0.0632 µM
[28] = HPLM + 10% dialyzed FBS, 0.19 µM
[29] = HPLM + 10% dialyzed FBS, 0.569 µM
[30] = HPLM + 10% dialyzed FBS, 1.71 µM
[31] = HPLM + 10% dialyzed FBS, 5.12 µM
[32] = HPLM + 10% dialyzed FBS, 15.4 µM
[33] = HPLM + 10% dialyzed FBS, 46.1 µM

Structure (SMILES)	cell viability [1]	cell viability [2]	cell viability [3]	cell viability [4]	cell viability [5]	cell viability [6]	cell viability [7]	cell viability [8]	cell viability [9]	cell viability [10]	cell viability [11]	cell viability [12]	cell viability [13]	cell viability [14]	cell viability [15]	cell viability [16]	cell viability [17]	cell viability [18]	cell viability [19]	cell viability [20]	cell viability [21]	cell viability [22]	cell viability [23]	cell viability [24]	cell viability [25]	cell viability [26]	cell viability [27]	cell viability [28]	cell viability [29]	cell viability [30]	cell viability [31]	cell viability [32]	cell viability [33]
CNc1nc(Nc2ccc(C(=O)N3CCOCC3)cc2OC)ncc1Cl	120%	116%	122%	119%	120%	115%	113%	107%	108%	108%	101%	123%	115%	121%	116%	123%	125%	116%	124%	112%	109%	104%	–	–	–	–	–	–	–	–	–	–	–
NC\1=N\C(=O)N(\C=C1)[C@@H]2O[C@H](CO)[C@@H](O)[C@@H]2O	14.9%	15.4%	9.94%	5.41%	3.93%	3.94%	3.63%	2.08%	1.73%	1.04%	0.402%	20%	16.6%	11.1%	10.5%	7.45%	6.15%	7.46%	5.67%	3.34%	3.72%	1.87%	26.1%	22.9%	9.22%	8.83%	4.99%	6.11%	6.14%	4.49%	3.27%	2.43%	0.778%
CC(C)(C#N)c1cc(Cn2cncn2)cc(C(C)(C)C#N)c1	130%	118%	121%	129%	120%	124%	128%	131%	113%	112%	112%	–	–	–	–	–	–	–	–	–	–	–	120%	119%	117%	119%	117%	116%	115%	115%	113%	108%	97%
COc1ccc(-c2ccc3ncc4c(c3c2)n(-c2ccc(N3CCNCC3)c(C(F)(F)F)c2)c(=O)n4C)cn1	81.7%	73.2%	72.3%	64.2%	59.4%	34.7%	22%	8.29%	6.08%	4.14%	4%	86.1%	91.5%	63%	65.8%	60.9%	47.1%	34%	5.19%	5.18%	4.63%	3.63%	99.5%	92.5%	79.1%	74.1%	72.5%	48.5%	48.9%	40.1%	30%	4.22%	3.22%
C[C@]12CC[C@H]3[C@@H](CC[C@H]4NC(=O)\C=C/[C@]34C)[C@@H]1CC[C@@H]2C(=O)NC5=CC(=CC=C5C(F)(F)F)C(F)(F)F	117%	108%	114%	108%	111%	117%	110%	105%	107%	103%	104%	104%	111%	109%	108%	117%	99.2%	99.3%	98.4%	96.7%	106%	97.5%	109%	112%	112%	111%	115%	111%	102%	104%	91.3%	107%	102%
CC(C)(O)CC[C@@H](O)[C@](C)(O)[C@H]1CC[C@@]2(O)C/3=C/C(=O)[C@@H]4C[C@@H](O)[C@@H](O)C[C@]4(C)[C@H]3CC[C@]12C	90.7%	96.3%	93.4%	96.3%	86.7%	104%	92.2%	94.1%	88%	86%	96.8%	95%	90.6%	90.8%	89%	94.6%	89.2%	88.8%	86.9%	91.2%	83.3%	89.4%	100%	103%	94.5%	96.6%	102%	98.4%	88.6%	93.6%	89.2%	89.6%	87.4%
O=C(O)C1(Cc2cccc(Nc3nccs3)n2)CCC(Oc2cccc(Cl)c2F)CC1 (configuration not stated)	102%	116%	108%	93.8%	122%	111%	108%	65.8%	47.1%	33.9%	17.3%	108%	116%	118%	116%	116%	117%	115%	68.9%	65.2%	33.5%	31.8%	102%	111%	112%	108%	115%	114%	99.5%	57.8%	39.4%	18.8%	13.7%
Cc1nc2cnc3ccc(C#Cc4cccnc4)cc3c2n1-c1ccc(C(C)(C)C#N)cc1	65.6%	84.1%	78.1%	88.3%	49.1%	43.5%	33.5%	43.7%	36.5%	40.6%	19.9%	71.8%	80.4%	77%	89.2%	53.6%	49.6%	36.4%	36.6%	33.7%	37.6%	24.2%	84.7%	89.5%	86.4%	87.4%	63.2%	56%	58.4%	53.7%	54.2%	54.4%	41%
